Measured values published in ChEMBL document CHEMBL3217454, “Structureactivity relationship studies using peptide arrays: the example of HIV-1 Revintegrase interaction” (Medchemcomm, 2013).
Square brackets hold non-standard residues; d marks the D form. Peptide text beside a SMILES is read from it. NMeF = CN[C@@H](Cc1ccccc1)C(=O)O; NMeI = CC[C@H](C)[C@H](NC)C(=O)O; NMeT = CN[C@H](C(=O)O)[C@@H](C)O; NMeK = CN[C@@H](CCCCN)C(=O)O; NMeV = CN[C@H](C(=O)O)C(C)C; NMeS = CN[C@@H](CO)C(=O)O

Assays:
Parameters in all cases: concentration or dose not given beside the values
[1] = biological target: Human immunodeficiency virus type 1 integrase (Human immunodeficiency virus 1) (UniProt Q7ZJM1); experiment: Binding affinity to HIV-1 integrase measured after overnight incubation by chemiluminescence analysis relative to IN 118-128
Human immunodeficiency virus type 1 integrase (Human immunodeficiency virus 1), sequence (Q7ZJM1 as listed by the source): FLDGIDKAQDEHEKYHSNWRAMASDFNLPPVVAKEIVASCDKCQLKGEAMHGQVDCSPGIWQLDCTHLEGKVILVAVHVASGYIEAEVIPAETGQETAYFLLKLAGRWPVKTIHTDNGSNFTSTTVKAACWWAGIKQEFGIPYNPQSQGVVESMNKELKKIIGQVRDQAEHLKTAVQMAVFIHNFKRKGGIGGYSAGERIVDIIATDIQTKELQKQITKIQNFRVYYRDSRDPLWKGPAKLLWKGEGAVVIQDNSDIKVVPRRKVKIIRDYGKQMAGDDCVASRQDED

[2] = system: Human immunodeficiency virus 1; experiment: Binding affinity to HLT-tagged HIV-1 Rev measured after overnight incubation by chemiluminescence analysis relative to IN 118-128
[3] = biological target: Human immunodeficiency virus type 1 integrase (Human immunodeficiency virus 1) (UniProt Q7ZJM1); experiment: Binding affinity to HIV-1 integrase measured after overnight incubation by chemiluminescence analysis relative to IN 174-188
[4] = system: Human immunodeficiency virus 1; experiment: Binding affinity to HLT-tagged HIV-1 Rev measured after overnight incubation by chemiluminescence analysis relative to IN 174-188

| Structure (SMILES) | Activity [1] | Activity [2] | Activity [3] | Activity [4] |
| --- | --- | --- | --- | --- |
| CC(C)[C@H](NC(=O)[C@@H](NC(=O)[C@@H](NC(=O)[C@H](CO)NC(=O)[C@@H](NC(=O)[C@H](Cc1ccccc1)NC(=O)[C@H](CC(N)=O)NC(=O)[C@H](CO)NC(=O)CN)[C@@H](C)O)[C@@H](C)O)[C@@H](C)O)C(=O)N[C@@H](CCCCN)C(=O)N[C@H](C)C(=O)O | 136% | 137% |  |  |
| CC(C)[C@H](NC(=O)[C@@H](NC(=O)[C@@H](NC(=O)[C@H](CO)NC(=O)[C@@H](NC(=O)[C@H](Cc1ccccc1)NC(=O)[C@H](CC(N)=O)NC(=O)[C@H](CO)NC(=O)CN)[C@@H](C)O)[C@@H](C)O)[C@@H](C)O)C(=O)N[C@@H](CCCCN)C(=O)O (H-GSNFTSTTVK-OH) | 242% | 201% |  |  |
| CC(C)[C@H](NC(=O)[C@@H](NC(=O)[C@@H](NC(=O)[C@H](CO)N(C)C(=O)[C@@H](NC(=O)[C@H](Cc1ccccc1)NC(=O)[C@H](CC(N)=O)NC(=O)[C@H](CO)NC(=O)CN)[C@@H](C)O)[C@@H](C)O)[C@@H](C)O)C(=O)N[C@@H](CCCCN)C(=O)N[C@@H](C)C(=O)O (H-GSNFT[NMeS]TTVKA-OH) | 312% | 279% |  |  |
| CC(C)[C@H](NC(=O)[C@@H](NC(=O)[C@@H](NC(=O)[C@H](CO)NC(=O)[C@@H](NC(=O)[C@H](Cc1ccccc1)NC(=O)[C@H](CC(N)=O)NC(=O)[C@H](CO)NC(=O)[C@H](C)N)[C@@H](C)O)[C@@H](C)O)[C@@H](C)O)C(=O)N[C@@H](CCCCN)C(=O)N[C@@H](C)C(=O)O (H-ASNFTSTTVKA-OH) | 116% | 77% |  |  |
| CC(C)[C@H](NC(=O)[C@@H](NC(=O)[C@@H](NC(=O)[C@H](CO)NC(=O)[C@@H](NC(=O)[C@H](Cc1ccccc1)NC(=O)[C@H](CC(N)=O)NC(=O)[C@H](CO)NC(=O)CN)[C@@H](C)O)[C@@H](C)O)[C@@H](C)O)C(=O)N(C)[C@@H](CCCCN)C(=O)N[C@@H](C)C(=O)O (H-GSNFTSTTV[NMeK]A-OH) | 185% | 191% |  |  |
| C[C@@H](O)[C@H](NC(=O)[C@@H](NC(=O)[C@H](CO)NC(=O)[C@@H](NC(=O)[C@H](Cc1ccccc1)NC(=O)[C@H](CC(N)=O)NC(=O)[C@H](CO)NC(=O)CN)[C@@H](C)O)[C@@H](C)O)C(=O)O (H-GSNFTSTT-OH) | 19% | 0% |  |  |
| CC(C)[C@H](NC(=O)[C@@H](NC(=O)[C@@H](NC(=O)[C@H](CO)NC(=O)[C@@H](NC(=O)[C@H](Cc1ccccc1)NC(=O)[C@H](CC(N)=O)NC(=O)[C@@H](CO)NC(=O)CN)[C@@H](C)O)[C@@H](C)O)[C@@H](C)O)C(=O)N[C@@H](CCCCN)C(=O)N[C@@H](C)C(=O)O | 346% | 190% |  |  |
| CC[C@H](C)[C@H](NC(=O)[C@@H](N)Cc1ccccc1)C(=O)N[C@@H](Cc1cnc[nH]1)C(=O)N[C@@H](CC(N)=O)C(=O)N[C@@H](Cc1ccccc1)C(=O)N[C@@H](CCCCN)C(=O)N[C@@H](CCCNC(=N)N)C(=O)N[C@@H](CCCCN)C(=O)O (H-FIHNFKRK-OH) |  |  | 133% | 69% |
| CC[C@H](C)[C@H](NC(=O)[C@H](Cc1ccccc1)NC(=O)[C@@H](NC(=O)[C@H](C)N)C(C)C)C(=O)N[C@@H](Cc1cnc[nH]1)C(=O)N[C@@H](CC(N)=O)C(=O)N[C@@H](Cc1ccccc1)C(=O)N[C@@H](CCCCN)C(=O)N[C@@H](CCCNC(=N)N)C(=O)N[C@@H](CCCCN)C(=O)O (H-AVFIHNFKRK-OH) |  |  | 120% | 111% |
| CC[C@H](C)[C@H](NC(=O)[C@H](Cc1ccccc1)NC(=O)[C@@H](NC(=O)[C@H](C)NC(=O)[C@H](CCSC)NC(=O)[C@H](CCC(N)=O)NC(=O)[C@H](NC(=O)[C@H](C)NC(=O)[C@@H](N)[C@@H](C)O)C(C)C)C(C)C)C(=O)N[C@@H](Cc1cnc[nH]1)C(=O)N[C@@H](CC(N)=O)C(=O)N[C@@H](Cc1ccccc1)C(=O)N[C@@H](CCCCN)C(=O)N[C@@H](CCCNC(=N)N)C(=O)N[C@@H](CCCCN)C(=O)O |  |  | 115% | 226% |
| CC[C@H](C)[C@@H](C(=O)N[C@@H](Cc1cnc[nH]1)C(=O)N[C@@H](CC(N)=O)C(=O)N[C@@H](Cc1ccccc1)C(=O)N[C@@H](CCCCN)C(=O)N[C@@H](CCCNC(=N)N)C(=O)N[C@@H](CCCCN)C(=O)O)N(C)C(=O)[C@H](Cc1ccccc1)NC(=O)[C@@H](NC(=O)[C@H](C)NC(=O)[C@H](CCSC)NC(=O)[C@H](CCC(N)=O)NC(=O)[C@@H](NC(=O)[C@H](C)NC(=O)[C@@H](N)[C@@H](C)O)C(C)C)C(C)C (H-TAVQMAVF[NMeI]HNFKRK-OH) |  |  | 123% | 107% |
| CC[C@H](C)[C@H](NC(=O)[C@H](Cc1ccccc1)NC(=O)[C@@H](NC(=O)[C@H](C)NC(=O)[C@H](CCSC)NC(=O)[C@H](CCC(N)=O)NC(=O)[C@@H](NC(=O)[C@H](C)NC(=O)[C@@H](N)[C@@H](C)O)C(C)C)C(C)C)C(=O)N[C@@H](Cc1cnc[nH]1)C(=O)N[C@@H](CC(N)=O)C(=O)N[C@@H](Cc1ccccc1)C(=O)N[C@@H](CCCCN)C(=O)N[C@@H](CCCNC(=N)N)C(=O)N(C)[C@@H](CCCCN)C(=O)O (H-TAVQMAVFIHNFKR[NMeK]-OH) |  |  | 117% | 201% |
| CC[C@H](C)[C@H](NC(=O)[C@H](Cc1ccccc1)NC(=O)[C@@H](NC(=O)[C@H](C)NC(=O)[C@H](CCSC)NC(=O)[C@H](CCC(N)=O)NC(=O)[C@@H](NC(=O)[C@H](C)NC(=O)[C@@H](N)[C@@H](C)O)C(C)C)C(C)C)C(=O)N[C@@H](Cc1cnc[nH]1)C(=O)N[C@@H](CC(N)=O)C(=O)N(C)[C@@H](Cc1ccccc1)C(=O)N[C@@H](CCCCN)C(=O)N[C@@H](CCCNC(=N)N)C(=O)N[C@@H](CCCCN)C(=O)O (H-TAVQMAVFIHN[NMeF]KRK-OH) |  |  | 122% | 50% |
| CC[C@H](C)[C@H](NC(=O)[C@H](Cc1ccccc1)NC(=O)[C@@H](NC(=O)[C@H](C)NC(=O)[C@H](CCSC)NC(=O)[C@H](CCC(N)=O)NC(=O)[C@@H](NC(=O)[C@H](C)NC(=O)[C@@H](N)[C@@H](C)O)C(C)C)C(C)C)C(=O)N[C@@H](Cc1cnc[nH]1)C(=O)O (H-TAVQMAVFIH-OH) |  |  | 0% | 0% |
| CC[C@H](C)[C@H](NC(=O)[C@H](Cc1ccccc1)NC(=O)[C@@H](NC(=O)[C@H](C)NC(=O)[C@H](CCSC)NC(=O)[C@H](CCC(N)=O)NC(=O)[C@@H](NC(=O)[C@H](C)NC(=O)[C@@H](N)[C@@H](C)O)C(C)C)C(C)C)C(=O)N[C@@H](Cc1cnc[nH]1)C(=O)N[C@@H](CC(N)=O)C(=O)N[C@H](Cc1ccccc1)C(=O)N[C@@H](CCCCN)C(=O)N[C@@H](CCCNC(=N)N)C(=O)N[C@@H](CCCCN)C(=O)O |  |  | 112% | 156% |
| CC[C@H](C)[C@H](NC(=O)[C@H](Cc1ccccc1)NC(=O)[C@H](NC(=O)[C@H](C)NC(=O)[C@H](CCSC)NC(=O)[C@H](CCC(N)=O)NC(=O)[C@@H](NC(=O)[C@H](C)NC(=O)[C@@H](N)[C@@H](C)O)C(C)C)C(C)C)C(=O)N[C@@H](Cc1cnc[nH]1)C(=O)N[C@@H](CC(N)=O)C(=O)N[C@@H](Cc1ccccc1)C(=O)N[C@@H](CCCCN)C(=O)N[C@@H](CCCNC(=N)N)C(=O)N[C@@H](CCCCN)C(=O)O |  |  | 108% | 152% |
| CC[C@H](C)[C@H](NC(=O)[C@H](Cc1ccccc1)NC(=O)[C@@H](NC(=O)[C@H](C)NC(=O)[C@H](CCSC)NC(=O)[C@H](CCC(N)=O)NC(=O)[C@H](C(C)C)N(C)C(=O)[C@H](C)NC(=O)[C@@H](N)[C@@H](C)O)C(C)C)C(=O)N[C@@H](Cc1cnc[nH]1)C(=O)N[C@@H](CC(N)=O)C(=O)N[C@@H](Cc1ccccc1)C(=O)N[C@@H](CCCCN)C(=O)N[C@@H](CCCNC(=N)N)C(=O)N[C@@H](CCCCN)C(=O)O (H-TA[NMeV]QMAVFIHNFKRK-OH) |  |  | 118% | 110% |
| CC[C@H](C)[C@H](NC(=O)[C@H](Cc1ccccc1)NC(=O)[C@@H](NC(=O)[C@H](C)NC(=O)[C@H](CCSC)NC(=O)[C@H](CCC(N)=O)NC(=O)[C@@H](NC(=O)[C@H](C)NC(=O)[C@@H](N)[C@@H](C)O)C(C)C)C(C)C)C(=O)N[C@@H](Cc1cnc[nH]1)C(=O)N[C@@H](CC(N)=O)C(=O)N[C@@H](Cc1ccccc1)C(=O)N[C@@H](C)C(=O)N[C@@H](CCCNC(=N)N)C(=O)N[C@@H](CCCCN)C(=O)O (H-TAVQMAVFIHNFARK-OH) |  |  | 91% | 176% |
| CC[C@H](C)[C@H](NC(=O)[C@H](Cc1ccccc1)NC(=O)[C@@H](NC(=O)[C@H](C)NC(=O)[C@H](CCSC)NC(=O)[C@H](CCC(N)=O)NC(=O)[C@@H](NC(=O)[C@H](C)NC(=O)[C@H](N)[C@@H](C)O)C(C)C)C(C)C)C(=O)N[C@@H](Cc1cnc[nH]1)C(=O)N[C@@H](CC(N)=O)C(=O)N[C@@H](Cc1ccccc1)C(=O)N[C@@H](CCCCN)C(=O)N[C@@H](CCCNC(=N)N)C(=O)N[C@@H](CCCCN)C(=O)O |  |  | 73% | 141% |
| CC[C@H](C)[C@H](NC(=O)[C@H](Cc1ccccc1)NC(=O)[C@@H](NC(=O)[C@H](C)NC(=O)[C@H](CCSC)NC(=O)[C@H](CCC(N)=O)NC(=O)[C@@H](NC(=O)[C@H](C)NC(=O)[C@@H](NC)[C@@H](C)O)C(C)C)C(C)C)C(=O)N[C@@H](Cc1cnc[nH]1)C(=O)N[C@@H](CC(N)=O)C(=O)N[C@@H](Cc1ccccc1)C(=O)N[C@@H](CCCCN)C(=O)N[C@@H](CCCNC(=N)N)C(=O)N[C@@H](CCCCN)C(=O)O (H-[NMeT]AVQMAVFIHNFKRK-OH) |  |  | 84% | 93% |
| CC[C@H](C)[C@H](NC(=O)[C@H](Cc1ccccc1)NC(=O)[C@@H](NC(=O)[C@H](C)NC(=O)[C@H](CCSC)NC(=O)[C@H](CCC(N)=O)NC(=O)[C@@H](NC(=O)[C@H](C)NC(=O)[C@@H](N)[C@@H](C)O)C(C)C)C(C)C)C(=O)O (H-TAVQMAVFI-OH) |  |  | 0% | 0% |
| CC[C@H](C)[C@H](NC(=O)[C@H](Cc1ccccc1)NC(=O)[C@@H](NC(=O)[C@H](C)NC(=O)[C@H](CCSC)NC(=O)[C@H](CCC(N)=O)NC(=O)[C@@H](NC(=O)[C@H](C)NC(=O)[C@@H](N)[C@@H](C)O)C(C)C)C(C)C)C(=O)N[C@@H](Cc1cnc[nH]1)C(=O)N[C@@H](CC(N)=O)C(=O)N[C@@H](Cc1ccccc1)C(=O)N(C)[C@@H](CCCCN)C(=O)N[C@@H](CCCNC(=N)N)C(=O)N[C@@H](CCCCN)C(=O)O (H-TAVQMAVFIHNF[NMeK]RK-OH) |  |  | 130% | 70% |
